One assay concerns genotype A, "Long" strain RSV. Put plainly: RSV-A assay (CPE protection in Hep-2 cells, ATPlite readout). The class given is cell-based, Human respiratory syncytial virus (HRSV). The conditions noted are these: human respiratory syncytial virus, RSV-A Long strain, MOI 0.1, CPE protection, read-out: Human RSV-A (“Long”) EC50. An outline of the steps: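 Hep-2, 8,000 cells/well, MOI 0.1 (PFU- or TCID50-based); 2-fold compound series, duplicates; 5 d incubation; ATPlite luminescence readout; EC50.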
In the case of `COc1cc(C(=O)NC[C@](O)(c2cc3c(c(-c4cc(Cl)ccc4Cl)n2)OC[C@]3(C)C(N)=O)C(F)(F)F)cc2cn(C3CC3)nc12` [Example 1255], the EC50 is below 200 nM.

As for `COc1cc(C(=O)NC[C@](O)(c2cc3c(c(-c4cccc(Br)c4F)n2)OC[C@]3(C)C(N)=O)C(F)(F)F)cc2cn(C3CC3)nc12` [Example 1225], the EC50 was below 200 nM.

For `COc1cc(C(=O)NCC(O)(c2cc3c(c(-c4cc(F)cc(Cl)c4)n2)OC[C@]3(C)C(N)=O)C(F)(F)F)cc2cn(C3CC3)nc12` (stereo partly shown) [Example 1252], the EC50 is below 200 nM.

With `[2H]C([2H])([2H])c1nc2c(OC)cc(C(=O)NC[C@](O)(c3cc4c(c(-c5cc(Br)c(F)cc5F)n3)OC[C@]4(C)C(N)=O)C3CC3)cc2cc1Cl` [Example 1272], the EC50 was below 200 nM.

For the compound `COc1cc(C(=O)NC[C@](O)(c2cc3c(c(-c4cc(Cl)c(F)cc4F)n2)OC[C@]3(C)C(N)=O)C2(F)CC2)cc2cn(C(F)F)nc12` [Example 1112], the EC50 is below 200 nM.

With `COc1cc(C(=O)NC[C@](O)(c2cc3c(c(-c4ccc(F)cc4)n2)OC[C@]3(C)C(N)=O)C2(F)CC2)cc2cc(Br)c(C)nc12` [Example 1118], the EC50 was below 200 nM.

For `COc1cc(C(=O)NC[C@](O)(c2cc3c(c(-c4c(F)ccc(Cl)c4Cl)n2)OC[C@]3(C)C(N)=O)C(F)(F)F)cc2cn(C3CC3)nc12` [Example 1263], the EC50 is below 200 nM.

With `COc1cc(C(=O)NC[C@](O)(c2cc3c(c(-c4cc(Cl)c(F)cc4F)n2)OC[C@]3(C)C(N)=O)C2CC2)cc2sc(C)nc12` [Example 1131], the EC50 is below 200 nM.

`Cc1cnc2c(OC(F)F)cc(C(=O)NC[C@](O)(c3cc4c(c(-c5cc(F)c(F)c(Cl)c5)n3)OC[C@]4(C)C(N)=O)C3CC3)cc2c1` [Example 1213]: the EC50 was below 200 nM.

Turning to `COc1cc(C(=O)NC[C@](O)(c2cc3c(c(-c4cc(Cl)cc(F)c4F)n2)OC[C@]3(C)C(N)=O)C(F)(F)F)cc2cn(C3CC3)nc12` [Example 1243], the EC50 is below 200 nM.

As for `COc1cc(C(=O)NC[C@](O)(c2cc3c(c(-c4cc(F)cc(F)c4Cl)n2)OC[C@]3(C)C(N)=O)C(F)(F)F)cc2cn(C3CC3)nc12` [Example 1261], the EC50 was below 200 nM.

The assay is the same for the next values; noted with them: human respiratory syncytial virus, genotype A “Long” strain RSV, MOI 0.1, CPE protection, read-out: Human RSV-A (“Long”).
Turning to `C[C@]1(C(N)=O)COc2c1cc([C@@](O)(CNC(=O)c1cc(Br)c3[nH]cnc3c1)C(F)(F)F)nc2-c1ccc(F)cc1` [Example 195], the EC50 was below 200 nM.

As for `NC(=O)[C@@]1(CF)COc2c1cc([C@@](O)(CNC(=O)c1cc(OC3CC3)c3ncccc3c1)C(F)(F)F)nc2-c1ccc(F)cc1` [Example 297], the EC50 is below 200 nM.

Regarding `Cc1ncc(C(=O)NC[C@](O)(c2cc3c(c(-c4ccc(F)cc4)n2)OC[C@]3(C)C(N)=O)C(F)(F)F)s1` [Example 431], the EC50 was above 200 nM.

`COc1cc(C(=O)NC[C@](O)(c2cc3c(c(-c4ccc(F)cc4)n2)OC[C@]3(C(N)=O)C2CC2)C(F)(F)F)ccc1OC1CC1` [Example 277]: the EC50 was above 200 nM.

For `COc1cc(C(=O)NC[C@](O)(c2cc3c(c(-c4ccc(F)cc4)n2)OCC3(C(N)=O)C(F)F)C(F)(F)F)cc2cn(C(F)F)nc12` (stereo partly shown) [Example 255], the EC50 was below 200 nM.

Turning to `C[C@]1(C(N)=O)COc2c1cc([C@@](O)(CNC(=O)c1cnn(-c3ccccc3)c1C(F)(F)F)C(F)(F)F)nc2-c1ccc(F)cc1` [Example 456], the EC50 was above 200 nM.

On to `Cn1ccc2cc(C(=O)NC[C@](O)(c3cc4c(c(-c5ccc(F)cc5)n3)OC[C@]4(C)C(N)=O)C(F)(F)F)ccc21` [Example 176], for which the EC50 was above 200 nM.

Take `CC(C)c1csc(C(=O)NC[C@](O)(c2cc3c(c(-c4ccc(F)cc4)n2)OC[C@]3(C)C(N)=O)C(F)(F)F)n1` [Example 437]: the EC50 is above 200 nM.

Regarding `C[C@]1(C(N)=O)COc2c1cc([C@@](O)(CNC(=O)c1c[nH]c3ccccc13)C(F)(F)F)nc2-c1ccc(F)cc1` [Example 352], the EC50 was above 200 nM.

Consider `C[C@]1(C(N)=O)COc2c1cc([C@@](O)(CNC(=O)c1cc3c(OC(F)F)cccc3[nH]1)C(F)(F)F)nc2-c1ccc(F)cc1` [Example 211], for which the EC50 is below 200 nM.

For `Cc1cnc2c(Nc3ccc(F)nn3)cc(C(=O)NC[C@](O)(c3cc4c(c(-c5ccc(F)cc5)n3)OC[C@]4(C)C(N)=O)C(F)(F)F)cc2c1` [Example 119], the EC50 is below 200 nM.

`C[C@]1(C(N)=O)COc2c1cc([C@@](O)(CNC(=O)c1cn3cc(Cl)ccc3n1)C(F)(F)F)nc2-c1ccc(F)cc1` [Example 808]: the EC50 is below 200 nM.

Turning to `CC[C@@]1(C(N)=O)COc2c1cc([C@@](O)(CNC(=O)c1cc(OC)c3nn(C(F)F)cc3c1)C(F)(F)F)nc2-c1ccc(F)cc1` [Example 243], the EC50 was above 200 nM.

`Cc1ccn2ncc(C(=O)NC[C@](O)(c3cc4c(c(-c5ccc(F)cc5)n3)OC[C@]4(C)C(N)=O)C(F)(F)F)c2n1` [Example 358]: the EC50 is above 200 nM.

Regarding `COc1cc2ccc(C(=O)NC[C@](O)(c3cc4c(c(-c5ccc(F)cc5)n3)OC[C@]4(C)C(N)=O)C(F)(F)F)cc2cc1OC` [Example 440], the EC50 is below 200 nM.

Take `COc1cc(C(=O)NC[C@](O)(c2cc3c(c(-c4ccc(F)c(Cl)c4)n2)OC[C@]3(C)C(N)=O)C(F)(F)F)cc2cc(Cl)c(C)nc12` [Example 228]: the EC50 is below 200 nM.

Consider `CC[C@@]1(C(N)=O)COc2c1cc([C@@](O)(CNC(=O)c1cc(OC)c3nc(C4CC4)cn3c1)C(F)(F)F)nc2-c1ccc(F)cc1` [Example 245], for which the EC50 was below 200 nM.

Take `COc1cc(C(=O)NC[C@](O)(c2cc3c(c(-c4ccc(F)cc4)n2)OC[C@]3(C(N)=O)C2CC2)C(F)(F)F)cc2cn(C3CC3)nc12` [Example 281]: the EC50 was above 200 nM.

For `CCn1cc2cc(C(=O)NC[C@](O)(c3cc4c(c(-c5ccc(F)cc5)n3)OC[C@]4(C)C(N)=O)C(F)(F)F)cc(Cl)c2n1` [Example 173], the EC50 is below 200 nM.

On to `C[C@]1(C(N)=O)COc2c1cc([C@@](O)(CNC(=O)c1c[nH]c3cccnc13)C(F)(F)F)nc2-c1ccc(F)cc1` [Example 383], for which the EC50 is above 200 nM.

As to `C[C@]1(C(N)=O)COc2c1cc([C@@](O)(CNC(=O)c1cc3cc[nH]c3cn1)C(F)(F)F)nc2-c1ccc(F)cc1` [Example 384], the EC50 is above 200 nM.

On to `C[C@]1(C(N)=O)COc2c1cc([C@@](O)(CNC(=O)c1cc(F)c3[nH]ccc3c1)C(F)(F)F)nc2-c1ccc(F)cc1` [Example 197], for which the EC50 is below 200 nM.

In the case of `Cc1cc(C(=O)NC[C@](O)(c2cc3c(c(-c4ccc(F)cc4)n2)OC[C@]3(C)C(N)=O)C(F)(F)F)cc2nc[nH]c12` [Example 194], the EC50 was below 200 nM.

Take `COc1cc(C(=O)NC[C@](O)(c2cc3c(c(-c4ccc(F)cc4)n2)OC[C@]3(C)C(N)=O)C(F)(F)F)cc2c1cnn2C1CC1` [Example 144]: the EC50 is above 200 nM.

As to `COc1cc(C(=O)NC[C@](O)(c2cc3c(c(-c4ccc(F)cc4)n2)OC[C@]3(C)C(N)=O)C(F)(F)F)nc2cc(C)nn12` [Example 180], the EC50 is above 200 nM.

In the case of `COc1cc(C(=O)NC[C@](O)(c2cc3c(c(-c4ccc(F)cc4)n2)OC[C@@]3(C(N)=O)C2CC2)C(F)(F)F)ccc1OC1CC1` [Example 276], the EC50 was below 200 nM.

Consider `C[C@]1(C(N)=O)COc2c1cc([C@@](O)(CNC(=O)c1ccc3cc[nH]c3c1F)C(F)(F)F)nc2-c1ccc(F)cc1` [Example 359], for which the EC50 was above 200 nM.

On to `Cc1ccn2cc(C(=O)NC[C@](O)(c3cc4c(c(-c5ccc(F)cc5)n3)OC[C@]4(C)C(N)=O)C(F)(F)F)nc2c1` [Example 805], for which the EC50 was above 200 nM.

In the case of `C[C@]1(C(N)=O)COc2c1cc([C@@](O)(CNC(=O)c1cc3cc(F)ccc3[nH]1)C(F)(F)F)nc2-c1ccc(F)cc1` [Example 422], the EC50 is above 200 nM.

As to `COc1ncccc1C(=O)NC[C@](O)(c1cc2c(c(-c3ccc(F)cc3)n1)OC[C@]2(C)C(N)=O)C(F)(F)F` [Example 428], the EC50 is above 200 nM.

With `Cc1cc2cc(C(=O)NC[C@](O)(c3cc4c(c(-c5ccc(F)cc5)n3)OC[C@]4(C)C(N)=O)C(F)(F)F)ccc2[nH]1` [Example 171], the EC50 was below 200 nM.

Turning to `CCc1ccc(Nc2cc(C(=O)NC[C@](O)(c3cc4c(c(-c5ccc(F)cc5)n3)OC[C@]4(C)C(N)=O)C(F)(F)F)cc3cc(C)cnc23)nn1` [Example 117], the EC50 is below 200 nM.

As to `C[C@]1(C(N)=O)COc2c1cc([C@@](O)(CNC(=O)c1cc3cn[nH]c3cc1Cl)C(F)(F)F)nc2-c1ccc(F)cc1` [Example 106], the EC50 was above 200 nM.

Consider `COc1cc(C(=O)NC[C@](O)(c2cc3c(c(-c4ccc(F)cc4)n2)OC[C@]3(C)C(N)=O)C2CC2)cc2cc(Cl)c(C)nc12` [Example 319], for which the EC50 was below 200 nM.

For `Cc1cc(C(=O)NC[C@](O)(c2cc3c(c(-c4ccc(F)cc4)n2)OC[C@]3(C)C(N)=O)C(F)(F)F)n[nH]1` [Example 355], the EC50 is above 200 nM.

`C[C@]1(C(N)=O)COc2c1cc([C@@](O)(CNC(=O)c1ccn3nc(C4CC4)cc3c1)C1CC1)nc2-c1ccc(F)cc1` [Example 332]: the EC50 is below 200 nM.

In the case of `Cn1cc(C(=O)NC[C@](O)(c2cc3c(c(-c4ccc(F)cc4)n2)OC[C@]3(C)C(N)=O)C(F)(F)F)nn1` [Example 337], the EC50 is above 200 nM.

As for `C[C@]1(C(N)=O)COc2c1cc([C@@](O)(CNC(=O)c1ccn3nc(N)cc3c1)C(F)(F)F)nc2-c1ccc(F)cc1` [Example 87], the EC50 is below 200 nM.

For `C[C@]1(C(N)=O)COc2c1cc([C@@](O)(CNC(=O)c1cnn3cccc3c1Cl)C(F)(F)F)nc2-c1ccc(F)cc1` [Example 198], the EC50 was above 200 nM.

Turning to `COc1cc(C(=O)NC[C@](O)(c2cc3c(c(-c4ccc(F)cc4)n2)OC[C@]3(C)C(N)=O)C2CC2)cc2cn(C(F)F)nc12` [Example 303], the EC50 is below 200 nM.

Consider `Cc1ccsc1C(=O)NC[C@](O)(c1cc2c(c(-c3ccc(F)cc3)n1)OC[C@]2(C)C(N)=O)C(F)(F)F` [Example 386], for which the EC50 was above 200 nM.

For the origin of these results see patent US12612412B2, “Antiviral heterocyclic compounds” (Enanta Pharmaceuticals, Inc., priority 2021, dated 2026).
